The first series is described as follows: The drug is tested on Bifidobacterium breve strain: DSM20213 for biotransformation. The drug concentrations were measured before and after a 12-h incubation by liquid-chromatography-coupled mass spectrometry (LC–MS). The settings on record: 2 µM.
In the case of `CN1CCc2c(c3ccccc3n2Cc2ccccc2)C1.CN1CCc2c(c3ccccc3n2Cc2ccccc2)C1.O=S(=O)(O)c1cccc2c(S(=O)(=O)O)cccc12`, the “Bacterial Biotransformation” value is given as “Compound NOT metabolized”.

As for `OCCN(CCO)c1nc(N2CCCCC2)c2nc(N(CCO)CCO)nc(N3CCCCC3)c2n1` [DIPYRIDAMOLE], the “Bacterial Biotransformation” value was “Compound NOT metabolized”.

On to `CCCN1C[C@H](CSC)C[C@@H]2c3cccc4[nH]cc(c34)C[C@H]21.CS(=O)(=O)O` [PERGOLIDE MESYLATE], for which the “Bacterial Biotransformation” value is reported as “Compound NOT metabolized”.

A further series in a line: The drug is tested on Bacteroides caccae strain: ATCC43185 for biotransformation. The drug concentrations were measured before and after a 12-h incubation by liquid-chromatography-coupled mass spectrometry (LC–MS). The settings on record: 2 µM.
For `CN1CCc2c(c3ccccc3n2Cc2ccccc2)C1.CN1CCc2c(c3ccccc3n2Cc2ccccc2)C1.O=S(=O)(O)c1cccc2c(S(=O)(=O)O)cccc12`, the “Bacterial Biotransformation” value is reported as “Compound NOT metabolized”.

Turning to `OCCN(CCO)c1nc(N2CCCCC2)c2nc(N(CCO)CCO)nc(N3CCCCC3)c2n1` [DIPYRIDAMOLE], the “Bacterial Biotransformation” value is “Compound NOT metabolized”.

Take `CCCN1C[C@H](CSC)C[C@@H]2c3cccc4[nH]cc(c34)C[C@H]21.CS(=O)(=O)O` [PERGOLIDE MESYLATE]: the “Bacterial Biotransformation” value is reported as “Compound NOT metabolized”.

Another series in a line: The drug is tested on Bacteroides vulgatus strain: ATCC8482 for biotransformation. The drug concentrations were measured before and after a 12-h incubation by liquid-chromatography-coupled mass spectrometry (LC–MS). The settings on record: phocaeicola vulgatus, 2 µM.
On to `CN1CCc2c(c3ccccc3n2Cc2ccccc2)C1.CN1CCc2c(c3ccccc3n2Cc2ccccc2)C1.O=S(=O)(O)c1cccc2c(S(=O)(=O)O)cccc12`, for which the “Bacterial Biotransformation” value is “Compound NOT metabolized”.

With `OCCN(CCO)c1nc(N2CCCCC2)c2nc(N(CCO)CCO)nc(N3CCCCC3)c2n1` [DIPYRIDAMOLE], the “Bacterial Biotransformation” value is on record as “Compound metabolized”.

Take `CCCN1C[C@H](CSC)C[C@@H]2c3cccc4[nH]cc(c34)C[C@H]21.CS(=O)(=O)O` [PERGOLIDE MESYLATE]: the “Bacterial Biotransformation” value is given as “Compound NOT metabolized”.

A short description of a further series: The drug is tested on Odoribacter splanchnicus strain: fecal isolate for biotransformation. The drug concentrations were measured before and after a 12-h incubation by liquid-chromatography-coupled mass spectrometry (LC–MS). The settings on record: 2 µM.
`CN1CCc2c(c3ccccc3n2Cc2ccccc2)C1.CN1CCc2c(c3ccccc3n2Cc2ccccc2)C1.O=S(=O)(O)c1cccc2c(S(=O)(=O)O)cccc12`: the “Bacterial Biotransformation” value was “Compound NOT metabolized”.

A short description of the next series: The drug is tested on Blautia hansenii strain: DSM20583 for biotransformation. The drug concentrations were measured before and after a 12-h incubation by liquid-chromatography-coupled mass spectrometry (LC–MS). Particulars: 2 µM.
`CN1CCc2c(c3ccccc3n2Cc2ccccc2)C1.CN1CCc2c(c3ccccc3n2Cc2ccccc2)C1.O=S(=O)(O)c1cccc2c(S(=O)(=O)O)cccc12`: the “Bacterial Biotransformation” value is recorded as “Compound NOT metabolized”.

With `OCCN(CCO)c1nc(N2CCCCC2)c2nc(N(CCO)CCO)nc(N3CCCCC3)c2n1` [DIPYRIDAMOLE], the “Bacterial Biotransformation” value is recorded as “Compound metabolized”.

On to `CCCN1C[C@H](CSC)C[C@@H]2c3cccc4[nH]cc(c34)C[C@H]21.CS(=O)(=O)O` [PERGOLIDE MESYLATE], for which the “Bacterial Biotransformation” value is “Compound NOT metabolized”.

Another series is described as follows: The drug is tested on Clostridium sp. strain: fecal isolate for biotransformation. The drug concentrations were measured before and after a 12-h incubation by liquid-chromatography-coupled mass spectrometry (LC–MS). Particulars: 2 µM.
As to `CN1CCc2c(c3ccccc3n2Cc2ccccc2)C1.CN1CCc2c(c3ccccc3n2Cc2ccccc2)C1.O=S(=O)(O)c1cccc2c(S(=O)(=O)O)cccc12`, the “Bacterial Biotransformation” value was “Compound NOT metabolized”.

Regarding `OCCN(CCO)c1nc(N2CCCCC2)c2nc(N(CCO)CCO)nc(N3CCCCC3)c2n1` [DIPYRIDAMOLE], the “Bacterial Biotransformation” value is “Compound metabolized”.

Consider `CCCN1C[C@H](CSC)C[C@@H]2c3cccc4[nH]cc(c34)C[C@H]21.CS(=O)(=O)O` [PERGOLIDE MESYLATE], for which the “Bacterial Biotransformation” value is listed as “Compound NOT metabolized”.

A short description of another series: The drug is tested on Clostridium scindens strain: ATCC35704 for biotransformation. The drug concentrations were measured before and after a 12-h incubation by liquid-chromatography-coupled mass spectrometry (LC–MS). The settings on record: 2 µM.
Regarding `CN1CCc2c(c3ccccc3n2Cc2ccccc2)C1.CN1CCc2c(c3ccccc3n2Cc2ccccc2)C1.O=S(=O)(O)c1cccc2c(S(=O)(=O)O)cccc12`, the “Bacterial Biotransformation” value is “Compound NOT metabolized”.

Turning to `OCCN(CCO)c1nc(N2CCCCC2)c2nc(N(CCO)CCO)nc(N3CCCCC3)c2n1` [DIPYRIDAMOLE], the “Bacterial Biotransformation” value is listed as “Compound NOT metabolized”.

In the case of `CCCN1C[C@H](CSC)C[C@@H]2c3cccc4[nH]cc(c34)C[C@H]21.CS(=O)(=O)O` [PERGOLIDE MESYLATE], the “Bacterial Biotransformation” value is “Compound NOT metabolized”.

A short description of another series: The drug is tested on Clostridium sporogenes strain: ATCC15579 for biotransformation. The drug concentrations were measured before and after a 12-h incubation by liquid-chromatography-coupled mass spectrometry (LC–MS). Particulars: 2 µM.
On to `CN1CCc2c(c3ccccc3n2Cc2ccccc2)C1.CN1CCc2c(c3ccccc3n2Cc2ccccc2)C1.O=S(=O)(O)c1cccc2c(S(=O)(=O)O)cccc12`, for which the “Bacterial Biotransformation” value is reported as “Compound NOT metabolized”.

Turning to `OCCN(CCO)c1nc(N2CCCCC2)c2nc(N(CCO)CCO)nc(N3CCCCC3)c2n1` [DIPYRIDAMOLE], the “Bacterial Biotransformation” value is given as “Compound metabolized”.

Consider `CCCN1C[C@H](CSC)C[C@@H]2c3cccc4[nH]cc(c34)C[C@H]21.CS(=O)(=O)O` [PERGOLIDE MESYLATE], for which the “Bacterial Biotransformation” value was “Compound NOT metabolized”.

A short description of the next series: The drug is tested on Enterococcus faecalis strain: V583 for biotransformation. The drug concentrations were measured before and after a 12-h incubation by liquid-chromatography-coupled mass spectrometry (LC–MS). The settings on record: 2 µM.
In the case of `CN1CCc2c(c3ccccc3n2Cc2ccccc2)C1.CN1CCc2c(c3ccccc3n2Cc2ccccc2)C1.O=S(=O)(O)c1cccc2c(S(=O)(=O)O)cccc12`, the “Bacterial Biotransformation” value was “Compound NOT metabolized”.

Consider `OCCN(CCO)c1nc(N2CCCCC2)c2nc(N(CCO)CCO)nc(N3CCCCC3)c2n1` [DIPYRIDAMOLE], for which the “Bacterial Biotransformation” value is “Compound NOT metabolized”.

In the case of `CCCN1C[C@H](CSC)C[C@@H]2c3cccc4[nH]cc(c34)C[C@H]21.CS(=O)(=O)O` [PERGOLIDE MESYLATE], the “Bacterial Biotransformation” value was “Compound NOT metabolized”.

A further series can be described thus: The drug is tested on Escherichia coli strain: BW25113 for biotransformation. The drug concentrations were measured before and after a 12-h incubation by liquid-chromatography-coupled mass spectrometry (LC–MS). Particulars: 2 µM.
In the case of `CN1CCc2c(c3ccccc3n2Cc2ccccc2)C1.CN1CCc2c(c3ccccc3n2Cc2ccccc2)C1.O=S(=O)(O)c1cccc2c(S(=O)(=O)O)cccc12`, the “Bacterial Biotransformation” value is “Compound NOT metabolized”.

On to `OCCN(CCO)c1nc(N2CCCCC2)c2nc(N(CCO)CCO)nc(N3CCCCC3)c2n1` [DIPYRIDAMOLE], for which the “Bacterial Biotransformation” value is on record as “Compound NOT metabolized”.

Regarding `CCCN1C[C@H](CSC)C[C@@H]2c3cccc4[nH]cc(c34)C[C@H]21.CS(=O)(=O)O` [PERGOLIDE MESYLATE], the “Bacterial Biotransformation” value is on record as “Compound NOT metabolized”.

The nature of another series: The drug is tested on Providencia rettgeri strain: DSM1131 for biotransformation. The drug concentrations were measured before and after a 12-h incubation by liquid-chromatography-coupled mass spectrometry (LC–MS). On the set-up: dose 2 uM, timepoint 0 vs 12 hours. Particulars: 2 µM. Type of series: ADME.
For the compound `CN1CCc2c(c3ccccc3n2Cc2ccccc2)C1.CN1CCc2c(c3ccccc3n2Cc2ccccc2)C1.O=S(=O)(O)c1cccc2c(S(=O)(=O)O)cccc12`, the “Bacterial Biotransformation” value is “Compound NOT metabolized”.

As for `OCCN(CCO)c1nc(N2CCCCC2)c2nc(N(CCO)CCO)nc(N3CCCCC3)c2n1` [DIPYRIDAMOLE], the “Bacterial Biotransformation” value was “Compound NOT metabolized”.

For the next series the following is noted: bifidobacterium adolescentis, 12 h, 2 µM.
Description: The drug is tested on Bifidobacterium adolescentis strain: ATCC 15703 for biotransformation. The drug concentrations were measured before and after a 12-h incubation by liquid-chromatography-coupled mass spectrometry (LC–MS)
Consider `CN1CCc2c(c3ccccc3n2Cc2ccccc2)C1.CN1CCc2c(c3ccccc3n2Cc2ccccc2)C1.O=S(=O)(O)c1cccc2c(S(=O)(=O)O)cccc12`, for which the “Bacterial Biotransformation” value is recorded as “Compound NOT metabolized”.

In the case of `OCCN(CCO)c1nc(N2CCCCC2)c2nc(N(CCO)CCO)nc(N3CCCCC3)c2n1` [DIPYRIDAMOLE], the “Bacterial Biotransformation” value is recorded as “Compound NOT metabolized”.

`CCCN1C[C@H](CSC)C[C@@H]2c3cccc4[nH]cc(c34)C[C@H]21.CS(=O)(=O)O` [PERGOLIDE MESYLATE]: the “Bacterial Biotransformation” value was “Compound NOT metabolized”.

For the next series the following is noted: bacteroides fragilis, 12 h, 2 µM.
Description: The drug is tested on Bacteroides fragilis strain: 3397 (T10) for biotransformation. The drug concentrations were measured before and after a 12-h incubation by liquid-chromatography-coupled mass spectrometry (LC–MS)
For the compound `CN1CCc2c(c3ccccc3n2Cc2ccccc2)C1.CN1CCc2c(c3ccccc3n2Cc2ccccc2)C1.O=S(=O)(O)c1cccc2c(S(=O)(=O)O)cccc12`, the “Bacterial Biotransformation” value is “Compound NOT metabolized”.

Turning to `OCCN(CCO)c1nc(N2CCCCC2)c2nc(N(CCO)CCO)nc(N3CCCCC3)c2n1` [DIPYRIDAMOLE], the “Bacterial Biotransformation” value is listed as “Compound NOT metabolized”.

On to `CCCN1C[C@H](CSC)C[C@@H]2c3cccc4[nH]cc(c34)C[C@H]21.CS(=O)(=O)O` [PERGOLIDE MESYLATE], for which the “Bacterial Biotransformation” value is listed as “Compound NOT metabolized”.

The conditions of a further series: bacteroides thetaiotaomicron, 12 h, 2 µM.
Description: The drug is tested on Bacteroides thetaiotaomicron strain: VPI-5482 for biotransformation. The drug concentrations were measured before and after a 12-h incubation by liquid-chromatography-coupled mass spectrometry (LC–MS)
`CN1CCc2c(c3ccccc3n2Cc2ccccc2)C1.CN1CCc2c(c3ccccc3n2Cc2ccccc2)C1.O=S(=O)(O)c1cccc2c(S(=O)(=O)O)cccc12`: the “Bacterial Biotransformation” value is “Compound NOT metabolized”.

Turning to `OCCN(CCO)c1nc(N2CCCCC2)c2nc(N(CCO)CCO)nc(N3CCCCC3)c2n1` [DIPYRIDAMOLE], the “Bacterial Biotransformation” value is on record as “Compound NOT metabolized”.

Regarding `CCCN1C[C@H](CSC)C[C@@H]2c3cccc4[nH]cc(c34)C[C@H]21.CS(=O)(=O)O` [PERGOLIDE MESYLATE], the “Bacterial Biotransformation” value is listed as “Compound NOT metabolized”.

The conditions of a further series: parabacteroides distasonis, 12 h, 2 µM.
Description: The drug is tested on Parabacteroides distasonis strain: ATCC8503 for biotransformation. The drug concentrations were measured before and after a 12-h incubation by liquid-chromatography-coupled mass spectrometry (LC–MS)
In the case of `OCCN(CCO)c1nc(N2CCCCC2)c2nc(N(CCO)CCO)nc(N3CCCCC3)c2n1` [DIPYRIDAMOLE], the “Bacterial Biotransformation” value is listed as “Compound NOT metabolized”.

For another series the following is noted: parabacteroides johnsonii, 12 h, 2 µM.
Description: The drug is tested on Parabacteroides johnsonii strain: DSM18315 for biotransformation. The drug concentrations were measured before and after a 12-h incubation by liquid-chromatography-coupled mass spectrometry (LC–MS)
As for `CN1CCc2c(c3ccccc3n2Cc2ccccc2)C1.CN1CCc2c(c3ccccc3n2Cc2ccccc2)C1.O=S(=O)(O)c1cccc2c(S(=O)(=O)O)cccc12`, the “Bacterial Biotransformation” value is “Compound NOT metabolized”.

In the case of `OCCN(CCO)c1nc(N2CCCCC2)c2nc(N(CCO)CCO)nc(N3CCCCC3)c2n1` [DIPYRIDAMOLE], the “Bacterial Biotransformation” value is listed as “Compound metabolized”.

For `CCCN1C[C@H](CSC)C[C@@H]2c3cccc4[nH]cc(c34)C[C@H]21.CS(=O)(=O)O` [PERGOLIDE MESYLATE], the “Bacterial Biotransformation” value is reported as “Compound NOT metabolized”.

For the next series the following is noted: segatella copri, 12 h, 2 µM.
Description: The drug is tested on Prevotella copri strain: DSM18205 for biotransformation. The drug concentrations were measured before and after a 12-h incubation by liquid-chromatography-coupled mass spectrometry (LC–MS)
For the compound `CN1CCc2c(c3ccccc3n2Cc2ccccc2)C1.CN1CCc2c(c3ccccc3n2Cc2ccccc2)C1.O=S(=O)(O)c1cccc2c(S(=O)(=O)O)cccc12`, the “Bacterial Biotransformation” value is “Compound NOT metabolized”.

As for `OCCN(CCO)c1nc(N2CCCCC2)c2nc(N(CCO)CCO)nc(N3CCCCC3)c2n1` [DIPYRIDAMOLE], the “Bacterial Biotransformation” value is “Compound NOT metabolized”.

`CCCN1C[C@H](CSC)C[C@@H]2c3cccc4[nH]cc(c34)C[C@H]21.CS(=O)(=O)O` [PERGOLIDE MESYLATE]: the “Bacterial Biotransformation” value is given as “Compound NOT metabolized”.

For the next series the following is noted: anaerostipes sp., 12 h, 2 µM.
Description: The drug is tested on Anaerostipes sp. strain: fecal isolate for biotransformation. The drug concentrations were measured before and after a 12-h incubation by liquid-chromatography-coupled mass spectrometry (LC–MS)
For `CN1CCc2c(c3ccccc3n2Cc2ccccc2)C1.CN1CCc2c(c3ccccc3n2Cc2ccccc2)C1.O=S(=O)(O)c1cccc2c(S(=O)(=O)O)cccc12`, the “Bacterial Biotransformation” value is on record as “Compound NOT metabolized”.

`OCCN(CCO)c1nc(N2CCCCC2)c2nc(N(CCO)CCO)nc(N3CCCCC3)c2n1` [DIPYRIDAMOLE]: the “Bacterial Biotransformation” value is reported as “Compound NOT metabolized”.

As to `CCCN1C[C@H](CSC)C[C@@H]2c3cccc4[nH]cc(c34)C[C@H]21.CS(=O)(=O)O` [PERGOLIDE MESYLATE], the “Bacterial Biotransformation” value is given as “Compound NOT metabolized”.

These data come from ChEMBL document CHEMBL5303573, “Mapping human microbiome drug metabolism by gut bacteria and their genes” (Nature, 2019).
